Measurements reported in PubChem BioAssay AID504573 (Southern Research Specialized Biocontainment Screening …, 2011).

These compounds were tested on host cell cytotoxicity, % cell control, 5% serum (assay: viability loss in CCR5-tropic fusion assay cells – cell-based, 5% serum, set 2, cytotoxicity control for HIV-1 antiviral lead project, dose response (AID 504573)).
Work on `Cc1c2c(=O)n(-c3nc4ccccc4s3)nc-2cc(O)n1Cc1ccc(F)cc1` yielded a CC50 of 4.4 µM. `Cc1c2c(=O)n(-c3nc4ccccc4s3)nc-2cc(O)n1Cc1ccncc1` was tested, and the CC50 was 5.07 µM. For `Cc1c2c(=O)n(-c3nc4ccccc4s3)nc-2cc(O)n1Cc1ccccc1Cl`, the CC50 was 4.34 µM. Compound `COc1ccccc1Cn1c(O)cc2nn(-c3nc4ccccc4s3)c(=O)c-2c1C` has a CC50 of 8.08 µM. `Cc1c2c(=O)n(-c3nc4ccccc4s3)nc-2cc(O)n1CCc1cccs1` gave a CC50 of 5.51 µM. Work on `COc1ccc(Cn2c(O)cc3nn(-c4nc5ccccc5s4)c(=O)c-3c2C)cc1` yielded a CC50 of 5.15 µM. `Cc1c2c(=O)n(-c3nc4ccccc4s3)nc-2cc(O)n1C1CC1` showed a CC50 of 4.98 µM. With `Cc1c2c(=O)n(-c3nc4ccccc4s3)nc-2cc(O)n1Cc1ccccc1` the CC50 was 5.4 µM. For `Cc1c2c(=O)n(-c3nc4ccccc4s3)nc-2cc(O)n1Cc1cccs1`, the CC50 was 5.94 µM. For `Cc1c2c(=O)n(-c3nc4ccccc4s3)nc-2cc(O)n1CCc1ccc(O)cc1`, the CC50 was 3.74 µM. `Cc1c2c(=O)n(-c3nc4ccccc4s3)nc-2cc(O)n1CCC(C)C` showed a CC50 of 5.64 µM. With `Cc1c2c(=O)n(-c3nc4ccccc4s3)nc-2cc(O)n1Cc1cccnc1` the CC50 was 3.89 µM. `COc1ccc(CCn2c(O)cc3nn(-c4nc5ccccc5s4)c(=O)c-3c2C)cc1` gave a CC50 of 7.2 µM.
